Source: patent publication US20260226065A1, “SUBSTITUTED BENZENE COMPOUND” (DAIICHI SANKYO COMPANY, LIMITED, priority 2023, published 2026)

What follows are compounds tested against T1, NLRP3 inflammasome (Homo sapiens, UniProt Q96P20) (assay: In vitro IL-1β production test (PMA-differentiated THP-1 cells, Nigericin stimulation, AlphaLISA)). Settings: inhibition of IL-1β production; THP-1 cells differentiated with 200 nM PMA; 0.015 mM Nigericin; 2 hours.
T1 construct: endogenous in cells; host or cells: THP-1 (human monocyte-derived), PMA-differentiated, Nigericin-stimulated
T1 sequence (Q96P20 whole entry): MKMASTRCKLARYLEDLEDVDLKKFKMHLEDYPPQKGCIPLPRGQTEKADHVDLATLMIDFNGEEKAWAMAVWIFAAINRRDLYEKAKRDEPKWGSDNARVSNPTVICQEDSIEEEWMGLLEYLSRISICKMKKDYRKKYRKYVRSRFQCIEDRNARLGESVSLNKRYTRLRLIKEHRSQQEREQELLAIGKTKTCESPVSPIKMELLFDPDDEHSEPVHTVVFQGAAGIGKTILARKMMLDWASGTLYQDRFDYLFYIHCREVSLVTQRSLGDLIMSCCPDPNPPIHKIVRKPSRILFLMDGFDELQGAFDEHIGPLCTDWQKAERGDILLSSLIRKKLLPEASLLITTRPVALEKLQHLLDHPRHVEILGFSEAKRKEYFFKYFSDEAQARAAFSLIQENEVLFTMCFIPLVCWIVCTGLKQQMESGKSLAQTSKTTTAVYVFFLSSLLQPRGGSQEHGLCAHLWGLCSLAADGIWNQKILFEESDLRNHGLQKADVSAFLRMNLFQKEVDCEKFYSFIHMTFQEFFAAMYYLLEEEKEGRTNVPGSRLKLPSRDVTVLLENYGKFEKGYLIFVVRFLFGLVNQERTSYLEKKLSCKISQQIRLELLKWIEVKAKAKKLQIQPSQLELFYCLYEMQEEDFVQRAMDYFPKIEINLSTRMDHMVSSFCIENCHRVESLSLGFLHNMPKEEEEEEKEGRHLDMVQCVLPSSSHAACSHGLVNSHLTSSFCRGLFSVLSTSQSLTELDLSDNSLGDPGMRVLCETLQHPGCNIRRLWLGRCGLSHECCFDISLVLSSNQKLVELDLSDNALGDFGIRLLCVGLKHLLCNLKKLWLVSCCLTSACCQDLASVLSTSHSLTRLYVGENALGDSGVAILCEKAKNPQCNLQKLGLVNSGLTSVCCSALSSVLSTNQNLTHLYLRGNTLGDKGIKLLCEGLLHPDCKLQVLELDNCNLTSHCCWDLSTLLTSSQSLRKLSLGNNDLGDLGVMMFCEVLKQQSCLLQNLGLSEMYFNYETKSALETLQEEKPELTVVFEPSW
Type: cell-based
Procedure: Human monocyte-derived THP-1 cells were cultured for one day in 10% bovine serum-containing RPMI-1640 medium (Thermo #A10491-01) supplemented with 200 nM phorbol 12-myristate 13-acetate (PMA, Sigma #P8139) to induce differentiation.
NLRP3 inflammasome was induced by replacing the culture medium with bovine serum-free RPMI-1640 medium supplemented with 0.015 mM Nigericin (Sigma #SML1779) and the test compound of known concentrations.
After 2 hours, the culture medium supernatant was collected and the IL-1β protein concentration was measured using the AlphaLISA (registered trademark) assay (PerkinElmer #AL220C).
The IL-1β concentration without the addition of the test compound and with Nigericin stimulation was set as 0% inhibitory activity, and the IL-1β concentration without Nigericin stimulation was set as 100% inhibitory activity, and the inhibition rate (% inhibition) of the test compound at each added concentration was calculated.
The % inhibition value was subjected to sigmoid fitting using a logistic regression model to calculate the 50% inhibitory concentration (IC50 value).

**Q.** `Cc1cc(C(F)(F)F)cc(O)c1-c1cc2c(nn1)N([C@@H]1CCCN(C)C1)C(C)C2` (mixture of isomers) [Example 30, 3-methyl-2-{6-methyl-7-[(3R)-1-methylpiperidin-3-yl]-6,7-dihydro-5H-pyrrolo[2,3-c]pyridazin-3-yl}-5-(trifluoromethyl)phenol] was tested. Which IC50 did it give?
**A.** 14.4 nM

**Q.** `Cc1cc(C(F)(F)F)cc(O)c1-c1cc2c(nn1)N([C@@H]1CCCN(C3CCOC3)C1)CC2` (mixture of isomers) [Example 57, 3-methyl-2-{7-[(3R)-1-(tetrahydrofuran-3-yl)piperidin-3-yl]-6,7-dihydro-5H-pyrrolo[2,3-c]pyridazin-3-yl}-5-(trifluoromethyl)phenol] was tested. Which IC50 did it give?
**A.** 57.2 nM

**Q.** Which IC50 does the source give for `CCN1[C@H]2CC[C@H](N3CCc4cc(-c5c(C)cc(C(F)(F)F)cc5O)nnc43)[C@@H]1CC2` (racemic) [Example 17, 2-{7-[(1S*, 2S*, 5R*)-8-ethyl-8-azabicyclo[3.2.1]octan-2-yl]-6,7-dihydro-5H-pyrrolo[2,3-c]pyridazin-3-yl}-3-methyl-5-(trifluoromethyl)phenol] here?
**A.** 9.47 nM

**Q.** Which IC50 does the source give for `Cc1cc(C(F)(F)F)cc(O)c1-c1cc2cnn(C3CCCN(C)C3)c2nn1` (racemic) [Example 31, 3-methyl-2-[1-(1-methylpiperidin-3-yl)-1H-pyrazolo[3,4-c]pyridazin-5-yl]-5-(trifluoromethyl)phenol] here?
**A.** 413 nM

**Q.** For `Cc1cc(C(F)(F)F)cc(O)c1-c1cc2ccn([C@H]3C[C@@](C)(O)[C@H]3C)c2nn1` (racemic) [Example 42, 2-{7-[(1S*,2S*,3R*)-3-hydroxy-2,3-dimethylcyclobutyl]-7H-pyrrolo[2,3-c]pyridazin-3-yl}-3-methyl-5-(trifluoromethyl)phenol], which IC50 is on record?
**A.** 74 nM

**Q.** How did the IC50 turn out when `Cc1cc(C(F)(F)F)cc(O)c1-c1cc2c(nn1)N([C@H]1C[C@@](C)(O)C1)CC2C` (mixture of isomers) [Example 85, 2-{7-[(1s,3s)-3-hydroxy-3-methylcyclobutyl]-5-methyl-6,7-dihydro-5H-pyrrolo[2,3-c]pyridazin-3-yl}-3-methyl-5-(trifluoromethyl)phenol] was run?
**A.** 65.3 nM

**Q.** How did the IC50 turn out when `Cc1cc(C(F)(F)F)cc(O)c1-c1cc2c(nn1)N([C@H]1C[C@@](C)(O)C1)C(C)C2` (mixture of isomers) [Example 86, 2-{7-[(1s,3s)-3-hydroxy-3-methylcyclobutyl]-6-methyl-6,7-dihydro-5H-pyrrolo[2,3-c]pyridazin-3-yl}-3-methyl-5-(trifluoromethyl)phenol] was run?
**A.** 141 nM

**Q.** Which IC50 does the source give for `Cc1cc(C(F)(F)F)cc(O)c1-c1ccc(CC2CCCN(C)C2)nn1` (racemic) [Example 93, 3-methyl-2-{6-[(1-methylpiperidin-3-yl)methyl]pyridazin-3-yl}-5-(trifluoromethyl)phenol] here?
**A.** 30.1 nM

**Q.** For `Cc1cc(C(F)(F)F)cc(O)c1-c1cc2c(nn1)c(C1CCCN(C)C1)cn2C` (racemic) [Example 94, 3-methyl-2-[5-methyl-7-(1-methylpiperidin-3-yl)-5H-pyrrolo[3,2-c]pyridazin-3-yl]-5-(trifluoromethyl)phenol], which IC50 is on record?
**A.** 79.6 nM

**Q.** With `Cc1cc(C(F)(F)F)cc(O)c1-c1cc2scc(C3CCCN(C)C3)c2nn1` (racemic) [Example 95, 3-methyl-2-[7-(1-methylpiperidin-3-yl)thieno[3,2-c]pyridazin-3-yl]-5-(trifluoromethyl)phenol] as the compound, how does the IC50 read?
**A.** 19.7 nM

**Q.** With `Cc1cc(C(F)(F)F)cc(O)c1-c1cc2c(nn1)N([C@@H]1CC[C@@H]3CC[C@H]1N3C)CC2` (single isomer, unassigned) [Example 19, 3-methyl-2-{7-[(1R,2R,5S or 1,2S,5R)-8-methyl-8-azabicyclo[3.2.1]octan-2-yl]-6,7-dihydro-5H-pyrrolo[2,3-c]pyridazin-3-yl}-5-(trifluoromethyl)phenol] as the compound, how does the IC50 read?
**A.** 9.99 nM

**Q.** Which IC50 does the source give for `Cc1cc(C(F)(F)F)cc(O)c1-c1cc2c(nn1)N([C@@H]1CCCN(C)C1)C[C@H]2C` (single isomer, unassigned) [Example 33, 3-methyl-2-{(5S or 5R)-5-methyl-7-[(3R)-1-methylpiperidin-3-yl]-6,7-dihydro-5H-pyrrolo[2,3-c]pyridazin-3-yl}-5-(trifluoromethyl)phenol] here?
**A.** 10 nM

**Q.** With `Cc1cc(C(F)(F)F)cc(O)c1-c1cc2c(nn1)N([C@@H]1CCCN(C)C1)C[C@@H]2C` (single isomer, unassigned) [Example 34, 3-methyl-2-{(5R or 5S)-5-methyl-7-[(3R)-1-methylpiperidin-3-yl]-6,7-dihydro-5H-pyrrolo[2,3-c]pyridazin-3-yl}-5-(trifluoromethyl)phenol] as the compound, how does the IC50 read?
**A.** 9.07 nM

**Q.** How did the IC50 turn out when `Cc1cc(C(F)(F)F)cc(O)c1-c1cc2c(nn1)N([C@@H]1CCCN(C)C1)[C@H](C)C2` (single isomer, unassigned) [Example 55, 3-methyl-2-{(6R or 6S)-6-methyl-7-[(3R)-1-methylpiperidin-3-yl]-6,7-dihydro-5H-pyrrolo[2,3-c]pyridazin-3-yl}-5-(trifluoromethyl)phenol] was run?
**A.** 23.8 nM

**Q.** Which IC50 does the source give for `CCN1[C@H]2CC[C@@H]1[C@H](n1cc(C)c3cc(-c4c(C)cc(C(F)(F)F)cc4O)nnc31)CC2` (single isomer, unassigned) [Example 76, 2-{7-[(1R,2R,5S or 1S,2S,5R)-8-ethyl-8-azabicyclo[3.2.1]octan-2-yl]-5-methyl-7H-pyrrolo[2,3-c]pyridazin-3-yl}-3-methyl-5-(trifluoromethyl)phenol] here?
**A.** 10.1 nM

**Q.** How did the IC50 turn out when `Cc1cc(C(F)(F)F)cc(O)c1-c1cc2cccc([C@@H]3CCCN(C)C3)c2nn1` (single isomer, unassigned) [Example 96, 3-methyl-2-{8-[(3R or 3S)-1-methylpiperidin-3-yl]cinnolin-3-yl}-5-(trifluoromethyl)phenol] was run?
**A.** 11.5 nM

**Q.** For `CCN1CCC[C@@H](c2cccc3cc(-c4c(C)cc(C(F)(F)F)cc4O)nnc23)C1` (single isomer, unassigned) [Example 97, 2-{8-[(3R or 3S)-1-ethylpiperidin-3-yl]cinnolin-3-yl}-3-methyl-5-(trifluoromethyl)phenol], which IC50 is on record?
**A.** 8.33 nM

**Q.** Which IC50 does the source give for `Cc1cc(C(F)(F)F)cc(O)c1-c1cc2c(nn1)N(c1ncc(F)cn1)[C@@H]1CCO[C@H]21` (single isomer, unassigned) [Example 98, 2-[(4bR,7aR or 4bS,7aS)-8-(5-fluoropyrimidin-2-yl)-6,7,7a,8-tetrahydro-4bH-furo[2′,3′:4,5]pyrrolo[2,3-c]pyridazin-3-yl]-3-methyl-5-(trifluoromethyl)phenol] here?
**A.** 13.8 nM

**Q.** With `Cc1cc(C(F)(F)F)cc(O)c1-c1cc2c(nn1)N([C@@H]1CCCN(C)C1)CC2` [Example 1, 3-methyl-2-{7-[(3R)-1-methylpiperidin-3-yl]-6,7-dihydro-5H-pyrrolo[2,3-c]pyridazin-3-yl}-5-(trifluoromethyl)phenol] as the compound, how does the IC50 read?
**A.** 5.27 nM

**Q.** With `Cc1cc(C(F)(F)F)cc(O)c1-c1cc2ccn([C@@H]3CCCN(C)C3)c2nn1` [Example 2, 3-methyl-2-{7-[(3R)-1-methylpiperidin-3-yl]-7H-pyrrolo[2,3-c]pyridazin-3-yl}-5-(trifluoromethyl)phenol] as the compound, how does the IC50 read?
**A.** 5.26 nM

**Q.** How did the IC50 turn out when `Cc1cc(C(F)(F)F)cc(O)c1-c1cc2c(Cl)cn([C@H]3C[C@@](C)(O)C3)c2nn1` [Example 6, 2-{5-chloro-7-[(1s,3s)-3-hydroxy-3-methylcyclobutyl]-7H-pyrrolo[2,3-c]pyridazin-3-yl}-3-methyl-5-(trifluoromethyl)phenol] was run?
**A.** 26 nM

**Q.** How did the IC50 turn out when `Cc1cc(C(F)(F)F)cc(O)c1-c1cc2ccn([C@H]3C[C@@](C)(CO)C3)c2nn1` [Example 7, 2-{7-[(1s,3s)-3-(hydroxymethyl)-3-methylcyclobutyl]-7H-pyrrolo[2,3-c]pyridazin-3-yl}-3-methyl-5-(trifluoromethyl)phenol] was run?
**A.** 67.6 nM

**Q.** With `Cc1cc(C(F)(F)F)cc(O)c1-c1cc2c(C)cn(C34CCCC(O)(C3)C4)c2nn1` [Example 8, 5-{3-[2-hydroxy-6-methyl-4-(trifluoromethyl)phenyl]-5-methyl-7H-pyrrolo[2,3-c]pyridazin-7-yl}bicyclo[3.1.1]heptan-1-ol] as the compound, how does the IC50 read?
**A.** 15.4 nM

**Q.** For `Cc1cc(Cl)cc(O)c1-c1cc2c(C)cn([C@H]3C[C@@](C)(O)C3)c2nn1` [Example 9, 5-chloro-2-{7-[(1s,3s)-3-hydroxy-3-methylcyclobutyl]-5-methyl-7H-pyrrolo[2,3-c]pyridazin-3-yl}-3-methylphenol], which IC50 is on record?
**A.** 13.2 nM

**Q.** With `CCN1CCC[C@@H](N2CCc3cc(-c4c(C)cc(C(F)(F)F)cc4O)nnc32)C1` [Example 11, 2-{7-[(3R)-1-ethylpiperidin-3-yl]-6,7-dihydro-5H-pyrrolo[2,3-c]pyridazin-3-yl}-3-methyl-5-(trifluoromethyl)phenol] as the compound, how does the IC50 read?
**A.** 7.32 nM

**Q.** With `Cc1cc(C(F)(F)F)cc(O)c1-c1cc2c3c(n([C@H]4C[C@@](C)(O)C4)c2nn1)CCC3` [Example 12, 2-{8-[(1s,3s)-3-hydroxy-3-methylcyclobutyl]-5,6,7,8-tetrahydrocyclopenta[4,5]pyrrolo[2,3-c]pyridazin-3-yl}-3-methyl-5-(trifluoromethyl)phenol] as the compound, how does the IC50 read?
**A.** 25.9 nM

**Q.** With `Cc1cc(OC(F)F)cc(O)c1-c1cc2c(C)cn([C@H]3C[C@@](C)(O)C3)c2nn1` [Example 13, 5-(difluoromethoxy)-2-{7-[(1s,3s)-3-hydroxy-3-methylcyclobutyl]-5-methyl-7H-pyrrolo[2,3-c]pyridazin-3-yl}-3-methylphenol] as the compound, how does the IC50 read?
**A.** 37.6 nM

**Q.** `CCCN1CCC[C@@H](N2CCc3cc(-c4c(C)cc(C(F)(F)F)cc4O)nnc32)C1` [Example 14, 3-methyl-2-{7-[(3R)-1-propylpiperidin-3-yl]-6,7-dihydro-5H-pyrrolo[2,3-c]pyridazin-3-yl}-5-(trifluoromethyl)phenol] was tested. Which IC50 did it give?
**A.** 7.87 nM
